In paper PMC13032676, “PGM1 deficiency is linked to sarcomeric and mitochondrial dysfunction in patient-derived iPSC-cardiomyocytes” (Journal of Translational Medicine, 2026):
Entries after “also recorded” stand apart in the source; their conditions may differ.

What was measured:
[1] = target: T1, human PGM1 (Homo sapiens, UniProt P36871); assay: Microscale-thermophoresis binding of ZM peptides to PGM1; conditions: His6-PGM1 labeled with RED-tris-NTA, 50 nM labeled PGM1, peptide 375 mM to 11.4 nM (16-step series), 10 min in the dark, 22 °C, 40% excitation power, 40% MST power, MO.Affinity v.2.2.4
T1 construct: made in house
T1 sequence (P36871 1-562): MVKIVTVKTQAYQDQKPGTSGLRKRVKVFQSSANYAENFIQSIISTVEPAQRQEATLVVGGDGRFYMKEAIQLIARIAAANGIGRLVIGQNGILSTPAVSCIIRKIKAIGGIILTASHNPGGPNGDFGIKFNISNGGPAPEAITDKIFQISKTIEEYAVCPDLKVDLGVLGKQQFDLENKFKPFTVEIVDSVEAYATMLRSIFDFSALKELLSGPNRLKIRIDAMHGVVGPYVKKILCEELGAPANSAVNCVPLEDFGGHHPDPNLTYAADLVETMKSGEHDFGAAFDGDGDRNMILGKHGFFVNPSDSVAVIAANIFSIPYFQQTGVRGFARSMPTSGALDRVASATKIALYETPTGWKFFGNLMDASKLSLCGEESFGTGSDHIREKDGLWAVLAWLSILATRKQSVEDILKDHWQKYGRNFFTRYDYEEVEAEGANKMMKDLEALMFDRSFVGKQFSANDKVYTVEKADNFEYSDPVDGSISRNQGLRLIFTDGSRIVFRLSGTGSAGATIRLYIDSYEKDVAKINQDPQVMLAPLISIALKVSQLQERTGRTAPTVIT
From the text: For microscale-thermophoresis studies, a peptide representing the conserved Zasp motif (ZM) of ZASP/Cypher (26-mer: […]) and a corresponding peptide with the T106I mutation (underscored in sequence) were synthesized by ABI Scientific. A vector for recombinant expression of human PGM1 has been previously described. PGM1 was expressed and purified as previously described.
For binding studies, PGM1 was labeled using a commercial kit (NanoTemper Technologies, Inc.) according to the manufacturer’s specifications. Briefly, PGM1 was incubated at room temperature for 30 min with RED-tris-NTA dye, which specifically labels His6 tags, resulting in 100 nM labeled protein. The wild-type and T106I ZM peptides were serially diluted into a series of 16 PCR strip tubes and mixed 1:1 with labeled PGM1. The final concentration series of each peptide was […] to 11.4 nM, with all tubes containing 50 nM labeled PGM1. Samples were incubated in the dark for 10 min prior to use. Standard capillaries (Nanotemper MO-K022) were used to draw up the liquid and placed onto the sample tray of the Monolith NT.115 instrument (NanoTemper). Measurements were performed at 22 °C with control software at 40% excitation power and 40% MST power. Kd values were calculated using the MO. Affinity software v.2.2.4 (NanoTemper Technologies).

[2] = test system: PGM1-deficient iCMs; assay: Untargeted N-glycoproteomics; format: cell-based, human; conditions: low galactose in culture medium (in-house estimate 0.5 mM), no galactose-free arm
Protocol: Untargeted proteomics and N-glycoproteomics were performed to assess the (glyco)protein expression changes between PGM1-deficient and CTR iCMs based on previously published protocols (see supplementary materials for details).
Proteomics and N-glycoproteomics data analysis was performed as described previously. The proteomics data were searched using Sequest search engine in Proteome Discoverer 3.0 against the human Uniprot protein database. The N-glycoproteomics data using the publicly available software pGlyco version 3 with an in-built N-glycan database for identifying glycans and human Uniprot protein database for identifying peptide sequence. Two missed cleavages were allowed for both proteomics and glycoproteomics analysis. Error tolerance for precursor and fragment ions were set to 10 ppm and 0.02 Da, respectively, for proteomics and 10 ppm and 20 ppm, respectively, for glycoproteomics. […] For proteomics, quantitation of peptides across PGM1-CDG and […] was done using TMT reporter ion intensities using “reporter ion quantifier” node. To quantify glycopeptides, reporter ion quantification was performed for glycoproteomics raw files in Proteome Discoverer and glycopeptide IDs obtained from pGlyco were matched with quantitation on a scan-to-scan basis (MS/MS). […]

[3] = test system: PGM1-CDG individuals; conditions: [5], [10], [11], [13] (b5), ref [7], cited from earlier work
[4] = test system: PGM1-deficient fibroblasts; conditions: ref [5], [61]; cited from earlier work
From the text: First, we performed targeted tracer metabolomics studies of central carbon metabolism. Previously, decreased UDP-Hexose levels were linked to reduced glycosylation in PGM1-CDG, which improve in presence of galactose.

| Compound | in vitro binding affinity to PGM1 (Kd, in words) [1] | effect on glycosylation (in words) [2] | effect on cardiac (and skeletal muscle) manifestations (in words) ([3]; galactose therapy in PGM1-CDG, ref [3], [7], [18]) | effect on glycosylation and systemic features (in words) ([3]; oral galactose supplementation in PGM1-CDG, ref [1], [3], [12]) | effect on UDP-hexose levels (in words) [4] |
| --- | --- | --- | --- | --- | --- |
| SSQPRQYNNPIGLYSAETLREMAQMY [wild-type ZM peptide, peptide representing the conserved Zasp motif (ZM) of ZASP/Cypher (26-mer)] | high-affinity binding (low µM) | – | – | – | – |
| LDB3 T206I mutant: corresponding peptide with the T106I mutation; dilated cardiomyopathy-associated LDB3 T206I mutant peptide (SSQPRQYNNPIGLYSAEILREMAQMY) | substantially reduced binding affinity (high µM) | – | – | – | – |
| O=C[C@H](O)[C@@H](O)[C@@H](O)[C@H](O)CO [galactose] | – | partially restores glycosylation in PGM1-deficient iCMs; also recorded: sufficient to partially restore glycosylation in PGM1-deficient iCMs | fails to ameliorate cardiac and skeletal muscle involvement; also recorded: cardiac involvement does not respond to galactose therapy; also recorded: cardiac manifestations remain largely refractory to treatment | improves systemic features; also recorded: effective correction of glycosylation defects and improvement of systemic clinical features | normalize UDP-hexose levels in PGM1-deficient fibroblasts |
